For orientation: Ki means a dissociation constant, usually derived from enzyme kinetics or from competition with a known ligand.

For assay [1], the target named is T1, recombinant 5-HT2c receptor (human) (Homo sapiens, UniProt P28335).
T1 construct: expressed in transfected cells
Kind of assay: 5-HT2c competition binding assay ([125I]-DOI SPA). On the procedure:
[^125I]-(±)DOI binding experiments are carried out in SPA 96-well format. Membranes used in this assay are prepared from AV-12 cells stably expressing recombinant 5-HT2c receptor (human). The incubation is initiated by the addition of a mixture of WGA PVT SPA beads (0.5 mg/well, Perkin Elmer (MA, USA), RPNQ0001) and 2.5 μg membranes to assay buffer (50 mM Tris-HCl, 10 mM MgCl2, 0.5 mM EDTA, 10 μM pargyline, 0.1% ascorbic acid, pH7.4) containing 0.2 nM [[^125I]-(±)DOI and varying concentrations of the test compound (10 point concentration response curves). Non-specific binding is determined in the presence of 20 μM 1-(1-Naphthyl)piperazine. Samples are incubated for four hours at room temperature (22° C.) and then read in a Microbeta Trilux.
Curves are evaluated using a 4-parameter logistic nonlinear equation to obtain the concentration of competitor causing 50% inhibition of radioligand binding (IC50). Equilibrium dissociation constants (Ki) are calculated according to the equation Ki=IC50/(1+L/Kd), where L equals the concentration of radioligand used in the experiment and Kd equals the equilibrium dissociation constant of the radioligand for the receptor, determined from standard saturation analysis or homologous competition experiments. […]

Assay [2] has as its target 5-HT5 (Homo sapiens, UniProt P47898). Kind of assay: 5-HT5 binding. An excerpt: (§1) Further, the compounds of the invention may be tested in binding assays and functional activity assays by well known methods for other physiologically important receptors such as, but not limited to, the hERG channel, other serotonin receptors (specifically 5-HT1A, 5-HT1B, 5-HT1D, 5-HT1E, 5-HT1F receptors, lack of agonist activity at 5-HT2B receptors, 5-HT2C, 5-HT4, 5-HTS, 5-HT6, and 5-HT7 receptors), muscarinic receptors, dopaminergic receptors (specifically D1, D2, and D3), GABAA receptors, adrenergic receptors and monoamine transporters. Certain exemplified compounds are tested at these receptors and are shown to lack significant activity.

The target in assay [3] is 5-HT6 (Homo sapiens, UniProt P50406). In words: 5-HT6 binding.
5-HT6, sequence (P50406 whole entry, species assumed): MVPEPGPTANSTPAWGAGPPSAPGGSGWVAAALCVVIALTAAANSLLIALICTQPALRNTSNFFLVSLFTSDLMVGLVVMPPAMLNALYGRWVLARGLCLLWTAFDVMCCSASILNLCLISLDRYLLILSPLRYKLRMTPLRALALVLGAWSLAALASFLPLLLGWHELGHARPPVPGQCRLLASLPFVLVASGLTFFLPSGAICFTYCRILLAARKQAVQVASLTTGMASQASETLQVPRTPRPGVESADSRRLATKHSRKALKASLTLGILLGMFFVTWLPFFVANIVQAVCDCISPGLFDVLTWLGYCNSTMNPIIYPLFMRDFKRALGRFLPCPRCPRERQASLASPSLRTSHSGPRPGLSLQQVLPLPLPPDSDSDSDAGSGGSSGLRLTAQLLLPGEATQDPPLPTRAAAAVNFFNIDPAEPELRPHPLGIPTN
From the text: as §1

In assay [4] the target is 5-HT7 (Homo sapiens, UniProt P34969). Kind of assay: 5-HT7 binding.
5-HT7, sequence (P34969 whole entry, species assumed): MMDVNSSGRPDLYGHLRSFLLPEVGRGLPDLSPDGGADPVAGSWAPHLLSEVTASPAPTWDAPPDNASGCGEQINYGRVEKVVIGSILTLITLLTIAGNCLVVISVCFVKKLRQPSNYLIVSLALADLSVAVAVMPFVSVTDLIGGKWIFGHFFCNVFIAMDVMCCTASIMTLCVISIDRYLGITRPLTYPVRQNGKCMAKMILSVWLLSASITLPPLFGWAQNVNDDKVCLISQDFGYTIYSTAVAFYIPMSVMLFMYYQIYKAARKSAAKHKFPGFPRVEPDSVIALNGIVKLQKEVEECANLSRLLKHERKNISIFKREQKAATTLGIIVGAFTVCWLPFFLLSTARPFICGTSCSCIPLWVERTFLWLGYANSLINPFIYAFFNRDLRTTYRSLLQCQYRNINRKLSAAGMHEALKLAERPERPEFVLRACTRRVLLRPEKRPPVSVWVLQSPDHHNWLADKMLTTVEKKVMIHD
From the text: as §1

Assay [5] deals with T2, H1 receptor (Rattus norvegicus, UniProt P31390).
T2 construct: from tissue; host or cells: living rat; frontal cortex
T2 sequence (P31390 whole entry): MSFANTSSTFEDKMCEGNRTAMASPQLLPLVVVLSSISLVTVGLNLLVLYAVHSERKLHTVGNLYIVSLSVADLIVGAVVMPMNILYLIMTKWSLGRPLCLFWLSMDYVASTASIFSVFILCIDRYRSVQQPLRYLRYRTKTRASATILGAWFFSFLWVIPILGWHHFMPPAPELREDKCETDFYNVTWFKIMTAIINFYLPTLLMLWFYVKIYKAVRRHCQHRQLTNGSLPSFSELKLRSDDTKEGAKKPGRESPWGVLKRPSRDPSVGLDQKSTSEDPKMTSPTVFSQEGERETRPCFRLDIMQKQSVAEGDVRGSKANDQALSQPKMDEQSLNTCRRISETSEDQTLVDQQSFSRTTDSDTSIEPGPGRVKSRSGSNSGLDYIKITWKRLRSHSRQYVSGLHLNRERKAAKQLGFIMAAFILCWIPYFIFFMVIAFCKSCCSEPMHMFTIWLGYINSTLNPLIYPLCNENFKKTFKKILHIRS
In words: Histamine H1 receptor occupancy in vivo (doxepin tracer). The settings on record: oral gavage, 1 hour before tracer, read-out: H1 RO EC50. How it is done:
Statistical Methods: Curves for each study are fitted to a 4 parameter logistic function with the bottom fixed at 0% using JMP® version 8.0 (SAS Institute Inc, Cary N.C.) and the absolute ED50 is calculated by the software. Values are given as means, standard errors and 95% confidence intervals. […] Briefly, male Sprague-Dawley rats (Harlan Sprague-Dawley, Indianapolis, Ind.) weighing approximately 230-280 grams are given ad lib access to food and water until the beginning of the 3-hour experimental protocol. 3-[4-(8-Fluorodibenzo[b,f][1,4]oxazepin-1′-yl)piperazin-1-yl]-2,2-dimethylpropanoic acid dihydrochloride is used as a positive control and doxepin is used as a tracer. Test compounds and control are administered by oral gavage in a vehicle comprised of 20% hydroxypropyl beta-cyclodextrin. Doxepin is dissolved in sterile water (100 μg/ml), diluted to 2 μg/ml with saline, and administered in a volume of 0.5 mL/kg intravenously via the lateral tail vein to yield a tracer dose of 1 μg/kg. Rats are administered test compound, 15 mg/kg positive control, or vehicle, followed 1 hour later by an intravenous “tracer” dose of doxepin (N=4). It is at the time of tracer administration that RO is considered to be measured. 40 mins after tracer administration, rats are sacrificed by cervical dislocation. Plasma samples are collected and the frontal cortex is removed. […]

Where a name gives a salt, the structure may show the parent alone.

5-HT5, sequence (P47898 whole entry, species assumed): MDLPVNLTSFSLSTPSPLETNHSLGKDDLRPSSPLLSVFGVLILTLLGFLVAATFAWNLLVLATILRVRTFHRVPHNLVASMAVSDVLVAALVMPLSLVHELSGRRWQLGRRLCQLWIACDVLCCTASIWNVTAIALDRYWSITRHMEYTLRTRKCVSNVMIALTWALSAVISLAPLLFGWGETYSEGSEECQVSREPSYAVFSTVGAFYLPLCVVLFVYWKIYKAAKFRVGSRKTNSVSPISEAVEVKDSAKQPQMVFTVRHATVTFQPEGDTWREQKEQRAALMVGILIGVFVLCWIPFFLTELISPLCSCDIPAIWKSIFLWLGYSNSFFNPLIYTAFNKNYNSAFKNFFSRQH
T1 sequence (P28335 33-458): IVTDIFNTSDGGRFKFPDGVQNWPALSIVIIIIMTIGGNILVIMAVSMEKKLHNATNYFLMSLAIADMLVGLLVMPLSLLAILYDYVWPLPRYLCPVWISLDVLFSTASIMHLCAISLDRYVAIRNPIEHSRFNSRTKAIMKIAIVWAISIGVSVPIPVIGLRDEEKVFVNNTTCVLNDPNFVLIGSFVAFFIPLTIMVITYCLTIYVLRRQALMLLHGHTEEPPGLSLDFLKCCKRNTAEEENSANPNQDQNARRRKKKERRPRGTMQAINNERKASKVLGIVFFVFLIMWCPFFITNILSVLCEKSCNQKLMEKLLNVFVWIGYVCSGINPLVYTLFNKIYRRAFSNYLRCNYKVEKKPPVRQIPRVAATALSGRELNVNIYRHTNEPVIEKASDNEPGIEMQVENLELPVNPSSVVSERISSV

Regarding `Cc1cc2n(c1)Cc1cc(Cl)ccc1N=C2N1CCN(CC(C)(C)C(=O)O)CC1` [Example 13, 3-[4-(7-Chloro-2-methyl-5H-pyrrolo[2,1-c][1,4]benzodiazepin-11-yl)piperazin-1-yl]-2,2-dimethylpropanoic acid dihydrochloride], the Ki is 2.37 µM in assay [1], above 9.09 µM in assay [2], above 5.83 µM in assay [3] and above 3.97 µM in assay [4]. Moreover, in assay [5], the ED50 was 0.3 mg/kg.

The record behind these values is patent US8314092B2, “Substituted [(5H-pyrrolo[2,1-c][1,4]benzodiazepin-11-yl)piperazin-1-yl]-2,2-dimethylpropanoic acid compounds as dual activity H1 inverse agonists/5-HT2A antagonists” (Eli Lilly and Company, priority 2011, dated 2012).
